Assay results: ChEMBL document CHEMBL5331094, “Identification of 2,4,5-trisubstituted-2,4-dihydro-3H-1,2,4-triazol-3-one-based small molecules as selective BRD9 binders” (Eur J Med Chem, 2023)

Legend:
[1] = biological target: Bromodomain-containing protein 7 (Homo sapiens, UniProt Q9NPI1); experiment: Inhibition of recombinant His-tagged […] (unknown origin) to histone H3 (1 to 30 residues) K4/18/23/27Ac incubated for 30 mins by alphascreen analysis
[2] = biological target: Bromodomain-containing protein 4 (Homo sapiens) (UniProt O60885); experiment: Binding affinity of recombinant His-tagged BRD4-BD1 (unknown origin) to histone H4Ac (1 to 21 residues) K5/8/12/Ac-Biotin-OH assessed as residual binding at 10 uM incubated for 30 mins by alphascreen analysis relative to control
[3] = biological target: Bromodomain-containing protein 2 (Homo sapiens) (UniProt P25440); experiment: Binding affinity of recombinant His-tagged BRD2-BD1 (unknown origin) to histone H4Ac (1 to 21 residues) K5/8/12/Ac-Biotin-OH assessed as residual binding at 10 uM incubated for 30 mins by alphascreen analysis relative to control
Sequence of Bromodomain-containing protein 2 (Homo sapiens) (P25440 whole entry, looked up, the tested form may be a part): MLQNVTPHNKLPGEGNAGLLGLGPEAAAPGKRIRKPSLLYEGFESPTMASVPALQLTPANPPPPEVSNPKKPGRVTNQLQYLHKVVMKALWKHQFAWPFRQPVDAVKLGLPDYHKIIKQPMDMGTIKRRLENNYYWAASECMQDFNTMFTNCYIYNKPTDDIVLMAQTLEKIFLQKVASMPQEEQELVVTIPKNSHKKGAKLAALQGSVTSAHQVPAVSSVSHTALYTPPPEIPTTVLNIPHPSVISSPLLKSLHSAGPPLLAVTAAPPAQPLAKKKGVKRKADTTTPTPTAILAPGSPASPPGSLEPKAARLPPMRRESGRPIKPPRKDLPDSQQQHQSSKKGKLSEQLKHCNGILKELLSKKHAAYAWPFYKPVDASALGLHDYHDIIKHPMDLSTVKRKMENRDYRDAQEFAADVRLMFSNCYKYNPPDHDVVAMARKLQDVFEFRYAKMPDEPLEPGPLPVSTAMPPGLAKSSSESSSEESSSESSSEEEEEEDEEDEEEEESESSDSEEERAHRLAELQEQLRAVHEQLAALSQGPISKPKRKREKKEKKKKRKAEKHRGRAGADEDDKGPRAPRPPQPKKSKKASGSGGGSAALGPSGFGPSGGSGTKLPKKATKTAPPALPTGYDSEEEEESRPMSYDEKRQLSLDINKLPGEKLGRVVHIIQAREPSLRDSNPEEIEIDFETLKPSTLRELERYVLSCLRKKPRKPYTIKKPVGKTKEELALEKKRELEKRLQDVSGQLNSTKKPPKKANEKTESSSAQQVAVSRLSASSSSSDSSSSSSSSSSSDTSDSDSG

HaCaT = experiment: Cytotoxicity against human HaCaT cells assessed as cell viability measured after 24 hrs by MTT assay; assay type: functional, cell-based
[4] = biological target: SWI/SNF-related matrix-associated actin-dependent regulator of chromatin subfamily A member 4 (Homo sapiens) (UniProt P51532); experiment: Binding affinity of recombinant His-tagged SMARCA4 (unknown origin) to histone H3 (1 to 30 residues) K4/18/23/27Ac assessed as residual binding at 10 uM incubated for 30 mins by alphascreen analysis relative to control
A-375 = experiment: Cytotoxicity against human A-375 cells assessed as cell viability measured after 24 hrs by MTT assay; assay type: functional, cell-based; conditions: A-375, 24 h
[5] = biological target: Bromodomain and PHD finger-containing protein 3 (Homo sapiens) (UniProt Q9ULD4); experiment: Binding affinity of recombinant His-tagged BRPF-3 (unknown origin) to histone H4Ac (1 to 21 residues) K5/8/12/Ac-Biotin-OH assessed as residual binding at 10 uM incubated for 30 mins by alphascreen analysis relative to control
[6] = biological target: Bromodomain-containing protein 7 (Homo sapiens) (UniProt Q9NPI1); experiment: Binding affinity of recombinant His-tagged […] (unknown origin) to histone H3 (1 to 30 residues) K4/18/23/27Ac assessed as residual binding at 10 uM incubated for 30 mins by alphascreen analysis relative to control
[7] = biological target: Transcription initiation factor TFIID subunit 1 (Homo sapiens) (UniProt P21675); experiment: Binding affinity of recombinant His-tagged TAF1 (unknown origin) to histone H4Ac (1 to 21 residues) K5/8/12/Ac-Biotin-OH assessed as residual binding at 10 uM incubated for 30 mins by alphascreen analysis relative to control
Sequence of Transcription initiation factor TFIID subunit 1 (Homo sapiens) (P21675 whole entry, the tested form may be a part): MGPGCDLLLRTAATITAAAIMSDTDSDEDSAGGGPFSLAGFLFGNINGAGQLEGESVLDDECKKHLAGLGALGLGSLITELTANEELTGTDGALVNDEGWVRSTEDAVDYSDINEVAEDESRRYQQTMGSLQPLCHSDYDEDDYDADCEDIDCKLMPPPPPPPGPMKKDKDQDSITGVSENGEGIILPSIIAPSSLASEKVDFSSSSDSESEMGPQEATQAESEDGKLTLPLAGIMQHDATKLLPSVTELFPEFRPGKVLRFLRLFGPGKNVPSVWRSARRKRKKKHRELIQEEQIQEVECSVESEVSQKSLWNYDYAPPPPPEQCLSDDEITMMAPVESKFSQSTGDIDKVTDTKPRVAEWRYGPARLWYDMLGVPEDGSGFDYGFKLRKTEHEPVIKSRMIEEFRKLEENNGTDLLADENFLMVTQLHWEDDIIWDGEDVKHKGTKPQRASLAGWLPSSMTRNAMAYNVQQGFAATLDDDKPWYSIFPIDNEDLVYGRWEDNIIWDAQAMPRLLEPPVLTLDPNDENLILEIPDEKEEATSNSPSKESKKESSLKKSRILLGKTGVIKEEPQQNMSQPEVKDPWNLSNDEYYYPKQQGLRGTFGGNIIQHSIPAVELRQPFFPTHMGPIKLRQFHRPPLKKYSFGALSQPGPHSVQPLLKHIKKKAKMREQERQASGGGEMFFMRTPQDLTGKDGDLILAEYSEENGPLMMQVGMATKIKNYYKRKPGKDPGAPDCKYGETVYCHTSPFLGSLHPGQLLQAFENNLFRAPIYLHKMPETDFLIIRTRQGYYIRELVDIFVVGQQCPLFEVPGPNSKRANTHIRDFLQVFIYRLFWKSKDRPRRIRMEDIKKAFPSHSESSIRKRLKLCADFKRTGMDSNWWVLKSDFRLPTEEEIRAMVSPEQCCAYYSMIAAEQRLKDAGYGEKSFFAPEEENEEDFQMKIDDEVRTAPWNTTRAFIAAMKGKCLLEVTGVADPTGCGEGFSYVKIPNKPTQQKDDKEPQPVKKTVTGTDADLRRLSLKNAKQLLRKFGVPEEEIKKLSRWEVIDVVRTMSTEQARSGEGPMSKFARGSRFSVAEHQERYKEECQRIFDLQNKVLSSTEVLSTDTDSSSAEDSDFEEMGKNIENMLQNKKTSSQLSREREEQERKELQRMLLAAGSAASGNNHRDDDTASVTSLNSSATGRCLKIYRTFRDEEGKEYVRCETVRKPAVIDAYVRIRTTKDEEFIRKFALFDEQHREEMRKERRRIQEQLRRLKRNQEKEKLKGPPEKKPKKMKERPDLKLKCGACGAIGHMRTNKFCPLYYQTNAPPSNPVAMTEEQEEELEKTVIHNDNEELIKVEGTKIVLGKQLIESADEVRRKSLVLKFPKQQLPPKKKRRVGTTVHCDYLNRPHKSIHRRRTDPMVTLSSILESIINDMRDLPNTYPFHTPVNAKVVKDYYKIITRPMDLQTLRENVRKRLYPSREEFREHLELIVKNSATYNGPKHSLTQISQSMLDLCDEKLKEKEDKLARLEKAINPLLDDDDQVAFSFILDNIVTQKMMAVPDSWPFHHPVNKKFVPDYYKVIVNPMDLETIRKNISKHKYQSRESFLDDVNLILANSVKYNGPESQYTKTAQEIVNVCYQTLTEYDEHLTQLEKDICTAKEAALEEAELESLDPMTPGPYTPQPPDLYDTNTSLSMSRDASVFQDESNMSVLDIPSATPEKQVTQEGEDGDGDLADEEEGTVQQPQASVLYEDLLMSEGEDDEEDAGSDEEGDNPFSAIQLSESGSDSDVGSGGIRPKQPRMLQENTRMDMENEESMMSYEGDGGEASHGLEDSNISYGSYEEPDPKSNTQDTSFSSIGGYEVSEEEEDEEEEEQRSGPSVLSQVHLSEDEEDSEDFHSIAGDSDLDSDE

[8] = biological target: Nucleosome-remodeling factor subunit BPTF (Homo sapiens) (UniProt Q12830); experiment: Binding affinity of recombinant His-tagged BPTF (unknown origin) to histone H4Ac (1 to 21 residues) K5/8/12/Ac-Biotin-OH assessed as residual binding at 10 uM incubated for 30 mins by alphascreen analysis relative to control
[9] = biological target: Bromodomain adjacent to zinc finger domain protein 2B (Homo sapiens) (UniProt Q9UIF8); experiment: Binding affinity of recombinant His-tagged BAZ2B (unknown origin) to histone H3 (1 to 21 residues) K9/14Ac-Biotin-OH assessed as residual binding at 10 uM incubated for 30 mins by alphascreen analysis relative to control
[10] = biological target: T1, Bromodomain-containing protein 9 (Homo sapiens) (UniProt Q9H8M2); experiment: Binding affinity of GST-tagged BRD9 domain (unknown origin) to histone H4Ac (1 to 21 residues) assessed as residual binding at 10 uM by alphascreen analysis relative to control
T1 sequence (whole entry): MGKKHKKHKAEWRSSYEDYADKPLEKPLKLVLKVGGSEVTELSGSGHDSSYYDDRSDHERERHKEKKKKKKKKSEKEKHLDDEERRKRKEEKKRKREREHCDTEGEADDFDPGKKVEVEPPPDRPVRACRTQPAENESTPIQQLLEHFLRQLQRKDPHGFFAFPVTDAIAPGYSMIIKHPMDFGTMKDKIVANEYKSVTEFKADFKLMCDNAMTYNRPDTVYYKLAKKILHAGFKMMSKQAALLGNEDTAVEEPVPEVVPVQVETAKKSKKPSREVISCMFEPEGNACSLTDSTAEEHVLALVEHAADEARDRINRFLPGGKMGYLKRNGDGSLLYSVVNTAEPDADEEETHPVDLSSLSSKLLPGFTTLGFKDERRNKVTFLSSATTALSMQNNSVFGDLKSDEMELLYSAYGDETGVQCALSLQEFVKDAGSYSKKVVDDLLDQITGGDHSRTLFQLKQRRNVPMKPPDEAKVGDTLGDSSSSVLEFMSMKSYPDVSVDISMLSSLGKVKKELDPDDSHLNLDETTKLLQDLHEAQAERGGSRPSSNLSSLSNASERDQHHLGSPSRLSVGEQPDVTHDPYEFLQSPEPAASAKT

[11] = biological target: Bromodomain-containing protein 3 (Homo sapiens) (UniProt Q15059); experiment: Binding affinity of recombinant His-tagged BRD3-BD1 (unknown origin) to histone H4Ac (1 to 21 residues) K5/8/12/Ac-Biotin-OH assessed as residual binding at 10 uM incubated for 30 mins by alphascreen analysis relative to control
Sequence of Bromodomain-containing protein 3 (Homo sapiens) (Q15059 2-726 limits assumed): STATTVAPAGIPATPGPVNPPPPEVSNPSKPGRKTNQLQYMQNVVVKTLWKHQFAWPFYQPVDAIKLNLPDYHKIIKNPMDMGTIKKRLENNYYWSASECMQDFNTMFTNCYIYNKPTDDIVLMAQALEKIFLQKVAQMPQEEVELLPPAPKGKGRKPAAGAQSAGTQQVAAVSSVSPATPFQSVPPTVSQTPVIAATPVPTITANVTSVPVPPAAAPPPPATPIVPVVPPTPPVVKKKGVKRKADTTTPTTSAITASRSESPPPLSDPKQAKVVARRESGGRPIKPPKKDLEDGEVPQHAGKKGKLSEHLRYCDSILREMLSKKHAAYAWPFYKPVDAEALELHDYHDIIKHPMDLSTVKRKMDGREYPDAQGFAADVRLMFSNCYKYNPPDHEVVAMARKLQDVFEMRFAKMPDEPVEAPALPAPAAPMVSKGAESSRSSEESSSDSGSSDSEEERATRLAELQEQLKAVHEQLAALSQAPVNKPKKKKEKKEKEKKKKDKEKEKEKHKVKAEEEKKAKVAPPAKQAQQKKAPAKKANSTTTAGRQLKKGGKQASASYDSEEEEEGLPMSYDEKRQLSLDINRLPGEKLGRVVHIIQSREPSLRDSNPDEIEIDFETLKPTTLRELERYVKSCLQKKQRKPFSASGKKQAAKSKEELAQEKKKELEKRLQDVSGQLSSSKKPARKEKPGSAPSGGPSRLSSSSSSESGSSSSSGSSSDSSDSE

[12] = biological target: Bromodomain-containing protein 3 (Homo sapiens) (UniProt Q15059); experiment: Binding affinity of recombinant His-tagged BRD3-BD2 (unknown origin) to histone H4Ac (1 to 21 residues) K5/8/12/Ac-Biotin-OH assessed as residual binding at 10 uM incubated for 30 mins by alphascreen analysis relative to control
[13] = biological target: Chromatin remodeling regulator CECR2 (Homo sapiens) (UniProt Q9BXF3); experiment: Binding affinity of recombinant His-tagged CECR2 (unknown origin) to histone H4Ac (1 to 21 residues) K5/8/12/Ac-Biotin-OH assessed as residual binding at 10 uM incubated for 30 mins by alphascreen analysis relative to control
[14] = biological target: Bromodomain testis-specific protein (Homo sapiens) (UniProt Q58F21); experiment: Binding affinity of recombinant His-tagged BRDT-BD1 (unknown origin) to histone H4Ac (1 to 21 residues) K5/8/12/Ac-Biotin-OH assessed as residual binding at 10 uM incubated for 30 mins by alphascreen analysis relative to control
[15] = biological target: Bromodomain-containing protein 4 (Homo sapiens) (UniProt O60885); experiment: Binding affinity of recombinant His-tagged BRD4-BD2 (unknown origin) to histone H4Ac (1 to 21 residues) K5/8/12/Ac-Biotin-OH assessed as residual binding at 10 uM incubated for 30 mins by alphascreen analysis relative to control
MCF7 = experiment: Cytotoxicity against human MCF7 cells assessed as cell viability measured after 24 hrs by MTT assay; assay type: functional, cell-based; conditions: MCF7, 24 h
Caco-2 = experiment: Cytotoxicity against human Caco-2 cells assessed as cell viability measured after 24 hrs by MTT assay; assay type: functional, cell-based; conditions: Caco-2, 24 h
[16] = biological target: Bromodomain-containing protein 1 (Homo sapiens) (UniProt O95696); experiment: Binding affinity of recombinant His-tagged BRD1 (unknown origin) to histone H4Ac (1 to 21 residues) K5/8/12/Ac-Biotin-OH assessed as residual binding at 10 uM incubated for 30 mins by alphascreen analysis relative to control
[17] = biological target: Bromodomain-containing protein 2 (Homo sapiens) (UniProt P25440); experiment: Binding affinity of recombinant His-tagged BRD2-BD2 (unknown origin) to histone H4Ac (1 to 21 residues) K5/8/12/Ac-Biotin-OH assessed as residual binding at 10 uM incubated for 30 mins by alphascreen analysis relative to control
Jurkat = experiment: Cytotoxicity against human Jurkat cells assessed as cell viability measured after 24 hrs by MTT assay; assay type: functional, cell-based
[18] = biological target: ATPase family AAA domain-containing protein 2 (Homo sapiens) (UniProt Q6PL18); experiment: Binding affinity of recombinant His-tagged ATAD2 (unknown origin) to histone H4Ac (1 to 21 residues) K5/8/12/Ac-Biotin-OH assessed as residual binding at 10 uM incubated for 30 mins by alphascreen analysis relative to control
Sequence of ATPase family AAA domain-containing protein 2 (Homo sapiens) (Q6PL18 whole entry, the tested form may be a part): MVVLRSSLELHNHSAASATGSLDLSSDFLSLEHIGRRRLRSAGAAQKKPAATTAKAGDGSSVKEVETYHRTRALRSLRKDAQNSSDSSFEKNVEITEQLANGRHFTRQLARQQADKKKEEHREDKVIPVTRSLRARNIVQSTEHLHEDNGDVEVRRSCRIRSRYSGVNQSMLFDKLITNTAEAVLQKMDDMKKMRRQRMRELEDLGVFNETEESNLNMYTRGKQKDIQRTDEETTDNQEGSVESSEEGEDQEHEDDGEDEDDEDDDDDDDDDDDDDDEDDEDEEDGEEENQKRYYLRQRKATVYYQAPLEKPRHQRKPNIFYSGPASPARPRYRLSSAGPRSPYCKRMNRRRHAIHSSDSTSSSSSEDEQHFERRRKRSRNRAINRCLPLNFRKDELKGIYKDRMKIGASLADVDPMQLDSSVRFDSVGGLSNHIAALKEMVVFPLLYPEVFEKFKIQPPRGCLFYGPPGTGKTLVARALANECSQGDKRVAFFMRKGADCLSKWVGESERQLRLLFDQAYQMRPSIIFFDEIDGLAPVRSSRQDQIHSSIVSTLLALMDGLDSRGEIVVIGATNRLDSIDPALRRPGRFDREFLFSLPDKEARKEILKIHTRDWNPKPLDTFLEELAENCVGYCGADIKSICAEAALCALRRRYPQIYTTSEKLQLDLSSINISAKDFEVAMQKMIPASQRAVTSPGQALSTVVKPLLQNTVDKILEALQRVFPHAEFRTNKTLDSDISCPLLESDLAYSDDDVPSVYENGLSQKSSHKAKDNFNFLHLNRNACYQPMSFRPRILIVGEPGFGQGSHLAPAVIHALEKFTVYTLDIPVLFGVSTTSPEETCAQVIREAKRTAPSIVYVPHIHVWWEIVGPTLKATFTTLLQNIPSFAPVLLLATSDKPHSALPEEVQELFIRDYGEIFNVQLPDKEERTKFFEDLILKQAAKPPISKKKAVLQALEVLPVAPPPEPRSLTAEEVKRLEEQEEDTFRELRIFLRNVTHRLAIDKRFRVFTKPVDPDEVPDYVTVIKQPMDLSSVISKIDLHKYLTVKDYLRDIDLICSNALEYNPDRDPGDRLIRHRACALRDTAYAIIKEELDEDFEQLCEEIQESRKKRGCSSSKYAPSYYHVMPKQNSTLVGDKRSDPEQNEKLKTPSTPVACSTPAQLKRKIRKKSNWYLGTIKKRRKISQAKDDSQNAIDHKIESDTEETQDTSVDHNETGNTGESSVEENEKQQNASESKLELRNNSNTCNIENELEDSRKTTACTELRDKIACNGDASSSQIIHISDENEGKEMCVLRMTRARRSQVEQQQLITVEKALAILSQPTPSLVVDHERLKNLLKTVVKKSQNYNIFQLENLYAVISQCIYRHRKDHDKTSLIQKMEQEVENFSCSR

[19] = biological target: T2, Bromodomain-containing protein 9 (Homo sapiens, UniProt Q9H8M2); experiment: Inhibition of BRD9 (unknown origin) by alpha screen analysis
T2 sequence (Q9H8M2 whole entry): T1 sequence (whole entry)

[20] = biological target: CREB-binding protein (Homo sapiens) (UniProt Q92793); experiment: Binding affinity of recombinant His-tagged CREBBP (unknown origin) to histone H4Ac (1 to 21 residues) K5/8/12/Ac-Biotin-OH assessed as residual binding at 10 uM incubated for 30 mins by alphascreen analysis relative to control
[21] = Cytotoxicity against human erythrocytes assessed as cell viability measured after 24 hrs by MTT assay; assay type: toxicity, cell-based, Erythrocyte

IC50 [1]: 71.4 µM | Activity [2]: > 100% | Activity [3]: 98.9% | Activity [4]: 96.5% | Activity [5]: 94.2% | Activity [6]: 75.8% | Activity [7]: 77.7% | Activity [8]: 95.5% | Activity [9]: > 100% | Activity [10]: 21.1% | Activity [11]: 96.5% | Activity [12]: > 100% | Activity [13]: 92.6% | Activity [14]: > 100% | Activity [15]: 88.6% | Activity [16]: 97.3% | Activity [17]: > 100% | Activity [18]: > 100% | IC50 [19]: 0.14 µM | Activity [20]: 97.7%
SMILES: CCc1nn(C)c(=O)n1-c1ccc2c(c1)OCO2
IC50 (HaCaT): > 500 µM | IC50 (A-375): 270 µM | IC50 (MCF7): 500 µM | IC50 (Caco-2): 330 µM | IC50 (Jurkat): 145 µM | IC50 at 24 h [21]: > 500 µM
